The subject of experiment [1] is Canis familiaris. Nature of the experiment: Inotropic activity of compound was evaluated as % increase in cardiac force at a dose of 8.75 (mg/Kg) in anesthetized dog. In kind it is functional, Canis lupus familiaris, Heart.
In experiment [2] the test system is Canis familiaris. Nature of the experiment: Inotropic activity of compound was evaluated as % change in heart rate at a dose of 8.75 (mg/Kg) in anesthetized dog. Type of experiment: functional, Canis lupus familiaris.
The test system of experiment [3] is Canis familiaris. As to the kind of experiment: Inotropic activity of compound was evaluated as % change in mean arterial blood pressure at a dose of 8.75 (mg/Kg) in anesthetized dog. Type of experiment: functional, Canis lupus familiaris.
The test system of experiment [4] is Canis familiaris. As to the kind of experiment: Inotropic activity of compound was evaluated as % increase in cardiac force at a dose of 1.87 (mg/Kg) in anesthetized dog. Type of experiment: functional, Canis lupus familiaris, Heart.
The test system of experiment [5] is Canis familiaris. Nature of the experiment: Inotropic activity of compound was evaluated as % change in heart rate at a dose of 1.87 (mg/Kg) in anesthetized dog. In kind it is functional, Canis lupus familiaris.
For experiment [6], the system named is Canis familiaris. As to the kind of experiment: Inotropic activity of compound was evaluated as % change in mean arterial blood pressure at a dose of 1.87 (mg/Kg) in anesthetized dog. Type of experiment: functional, Canis lupus familiaris.
Experiment [7] relates to Canis familiaris. Nature of the experiment: Inotropic activity of compound was evaluated as % increase in cardiac force at a dose of 8.28 (mg/Kg) in anesthetized dog. Type of experiment: functional, Canis lupus familiaris, Heart.
Experiment [8] relates to Canis familiaris. Nature of the experiment: Inotropic activity of compound was evaluated as % change in heart rate at a dose of 8.28 (mg/Kg) in anesthetized dog. In kind it is functional, Canis lupus familiaris.
The subject of experiment [9] is Canis familiaris. Nature of the experiment: Inotropic activity of compound was evaluated as % change in mean arterial blood pressure at a dose of 8.28 (mg/Kg) in anesthetized dog. In kind it is functional, Canis lupus familiaris.
Experiment [10] concerns Canis familiaris. Nature of the experiment: Inotropic activity of compound was evaluated as % increase in cardiac force at a dose of 10 (mg/Kg, intraduodenally) in anesthetized dog. In kind it is functional, Canis lupus familiaris, Heart.
Experiment [11] has as its system Canis familiaris. Nature of the experiment: Inotropic activity of compound was evaluated as % change in heart rate at a dose of 10 (mg/Kg, intraduodenally) in anesthetized dog. In kind it is functional, Canis lupus familiaris.
Experiment [12] deals with Canis familiaris. As to the kind of experiment: Inotropic activity of compound was evaluated as % change in mean arterial blood pressure at a dose of 10 (mg/Kg, intraduodenally) in anesthetized dog. Type of experiment: functional, Canis lupus familiaris.

In the case of `COc1cc2nc(-c3ccccc3)[n+]([O-])c(C)c2cc1OC`, the CF in the experiment with Canis familiaris [1] was 29%. Further, the HR with Canis familiaris [2] worked out at 5%. Besides, the MABP with Canis familiaris [3] is 0%.

`COc1ccc(C2Nc3cc(OC)c(OC)cc3C(C)=[N+]2[O-])cc1` (stereo not given): the CF in the experiment on Canis familiaris [4] turned out to be 29%. The HR with Canis familiaris [5] was 8%. Besides, in the experiment on Canis familiaris [6], the MABP is -6%.

For the molecule `COc1cc2c(cc1OC)C(C)=[N+]([O-])C(c1ccncc1)N2` (stereo not given), in the experiment on Canis familiaris [1], the CF was found to be 29%. Besides, the HR in the experiment with Canis familiaris [2] turned out to be 8%. For the same molecule, the MABP in the experiment on Canis familiaris [3] worked out at 0%.

As to `COc1cc2c(cc1OC)C(C)=[N+]([O-])C(c1c(F)c(F)c(F)c(F)c1F)N2` (stereo not given), the CF with Canis familiaris [4] is 33%. Also, in the experiment with Canis familiaris [5], the HR was 8%. In the experiment on Canis familiaris [6], the MABP is recorded as 2%.

Take `COc1cc2c(cc1OC)C(C)=[N+]([O-])C(c1ccc(C)cc1)N2` (stereo not given): in the experiment with Canis familiaris [4], the CF is on record as 45%. Also, the HR in the experiment on Canis familiaris [5] came out at 10%. In the experiment with Canis familiaris [6], the MABP is given as -6%.

Regarding `COc1cc2c(cc1OC)C(C)=[N+]([O-])C(c1cc3c(cc1[N+](=O)[O-])OCO3)N2` (stereo not given), the CF in the experiment with Canis familiaris [1] was determined as 17%. In the experiment on Canis familiaris [2], the HR is given as 4%. In addition, the MABP in the experiment with Canis familiaris [3] stood at 0%.

As for `COc1cc2c(cc1OC)C(C)=[N+]([O-])C(c1cccs1)N2` (stereo not given), the CF with Canis familiaris [1] was 75%. The HR in the experiment on Canis familiaris [2] is reported as 21%. The MABP with Canis familiaris [3] is recorded as -31%.

As to `COc1cc2c(cc1OC)C(C)=[N+]([O-])C(c1cccc3c1OCO3)N2` (stereo not given), in the experiment on Canis familiaris [7], the CF was 45%. The HR in the experiment on Canis familiaris [8] worked out at 13%. Besides, the MABP in the experiment on Canis familiaris [9] is on record as 10%.

As to `COc1cc2c(cc1OC)C(C)=[N+]([O-])C(c1ccccc1)N2` (stereo not given), the figures for the CF with Canis familiaris [4], in the experiment with Canis familiaris [10] and in the experiment on Canis familiaris [1] were 42%, 157% and 137%, respectively. Also, the HR was found to be 12% with Canis familiaris [5], 37% in the experiment on Canis familiaris [11] and 47% with Canis familiaris [2]. Besides, the values for the MABP with Canis familiaris [6], with Canis familiaris [12] and in the experiment on Canis familiaris [3] were -3%, -15% and -28%, respectively.

As for `COc1cc2nc(-c3ccccc3)nc(C)c2cc1OC`, the CF in the experiment on Canis familiaris [4] is reported as -14%. The HR in the experiment on Canis familiaris [5] is -4%. In the experiment on Canis familiaris [6], the MABP is -20%.

For `COc1cc2c(cc1OC)C(C)=[N+]([O-])C(c1ccco1)N2` (stereo not given), the CF in the experiment on Canis familiaris [1] turned out to be 123%. For the same molecule, in the experiment with Canis familiaris [2], the HR is 20%. Moreover, the MABP with Canis familiaris [3] is -14%.

Take `COc1cc2c(cc1OC)C(C)=[N+]([O-])C(c1ccccn1)N2` (stereo not given): the CF in the experiment with Canis familiaris [1] is recorded as 45%. For the same molecule, in the experiment on Canis familiaris [2], the HR is 16%. Also, the MABP in the experiment with Canis familiaris [3] is recorded as 0%.

For `COc1cc2c(cc1OC)C(C)=[N+]([O-])C(c1ccc3c(c1)OCO3)N2` (stereo not given), the CF in the experiment on Canis familiaris [1] is 124%. Further, in the experiment on Canis familiaris [2], the HR was 39%. Besides, in the experiment with Canis familiaris [3], the MABP is on record as -38%.

The values above are taken from ChEMBL document CHEMBL1125977, “2-aryl-1,2-dihydro-6,7-dimethoxyquinazoline-3-oxides with positive inotropic activity” (1991).
